Results from patent US7915293B2, “Ubiquitin ligase inhibitors” (Rigel Pharmaceuticals, Inc., priority 2003, dated 2011).

Molecular target: E3 (His-APC11/APC2-"APC") (Homo sapiens, UniProt Q9NYG5+Q9UJX6)
Experiment: Plate-based E3 ligase assay (APC FLAG), auto-ubiquitination
Assay type: biochemical
Parameters: key: “+” indicates that the compound exibits inhibitory activity; “−” indicates that low or no inhibitory activity was observed
Conditions: 2 concentrations tested
Experimental: E3 (His-APC11/APC2-“APC”) auto-ubiquitination was measured as described in U.S. patent application Ser. No. 09/826,312 (Publication No. US-2002-0042083-A1), which is incorporated herein in its entirety. Details of the protocol are described below. Activity in the presence of the compound was determined relative to a parallel control in which only DMSO was added. Values of the IC50 were typically determined using 6 or 8 different concentrations of the compound, although as few as 2 concentrations may be used to approximate the IC50 value.
Nickel-coated 96-well plates (Pierce 15242) were blocked for 1 hour with 100 μl of blocking buffer at room temperature. The plates were washed 4 times with 225 μl of 1×PBS and 80 μl of the reaction buffer were added that contained 100 ng/well of Flag-ubiquitin. To this, 10 μl of the test compound diluted in DMSO were added. After the test compound was added, 10 μl of E1 (human), E2 (Ubch5c), and APC in Protein Buffer was added to obtain a final concentration of 5 ng/well of E1, 20 ng/well of E2 and 100 ng/well of APC. The plate were shaken for 10 minutes and incubated at room temperature for 1 hour. After incubation, the plates were washed 4 times with 225 μl of 1×PBS and 100 μl/well of Antibody Mix were added to each well. The plates were incubate at room temperature for another hour after which they were washed 4 times with 225 μl of 1×PBS and 100 μl/well of Lumino substrate were added to each well. The luminescence was measured by using a BMG luminescence microplate reader.
To prepare the Blocking Buffer (1 liter; 1% Casein in 1×PBS), 10 grams of Casein (Hammersten Grade Casein from Gallard-Schlesinger Inc. #440203) were placed into 1 liter of 1×PBS, stirred on a hot plate and kept between 50-60° C. for an hour. The buffer was allowed to cool to room temperature and then filtered using a Buchner Funnel (Buchner filter funnel 83 mm 30310-109) and Whatman filter paper (Whatman Grade No. 1 Filter paper 28450-070). It was stored at 4° C. until used.
The reaction buffer consisted of 62.5 mM Tris pH 7.6 (Trizma Base—Sigma T-8524), 3 mM MgCl2 (Magnesium Chloride—Sigma M-2393), 1 mM DTT (Sigma D-9779), 2.5 mM ATP (Roche Boehringer Mann Corp. 635-316), 100 ng/well of Flag-ubiquitin, 0.1% BSA (Sigma A-7906), and 0.05% Tween-20 (Sigma P-7949).
The Protein Buffer consisted of 20 mM Tris pH 7.6, 10% glycerol (Sigma G-5516) and 1 mM DTT.
The antibody mix consisted of 0.25% BSA (Sigma A-7906) in 1×PBS, 1/50,000 anti-Flag (Sigma F-3165), 1/100,000 of anti-Mouse IgG-HRP (Jackson Immunoresearch #115-035-146).
The substrate mix consisted of SuperSignal Substrate from Pierce (catalog number 37070ZZ) and was prepared by mixing 100 ml of the peroxide solution, 100 ml of the enhancer solution and 100 ml of Milli-Q® water.

E3 (His-APC11/APC2-"APC"), sequence (Q9NYG5 whole entry): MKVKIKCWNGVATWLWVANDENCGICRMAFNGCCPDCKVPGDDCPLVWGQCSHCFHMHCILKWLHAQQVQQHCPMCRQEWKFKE
E3 (His-APC11/APC2-"APC"), sequence (Q9UJX6 whole entry): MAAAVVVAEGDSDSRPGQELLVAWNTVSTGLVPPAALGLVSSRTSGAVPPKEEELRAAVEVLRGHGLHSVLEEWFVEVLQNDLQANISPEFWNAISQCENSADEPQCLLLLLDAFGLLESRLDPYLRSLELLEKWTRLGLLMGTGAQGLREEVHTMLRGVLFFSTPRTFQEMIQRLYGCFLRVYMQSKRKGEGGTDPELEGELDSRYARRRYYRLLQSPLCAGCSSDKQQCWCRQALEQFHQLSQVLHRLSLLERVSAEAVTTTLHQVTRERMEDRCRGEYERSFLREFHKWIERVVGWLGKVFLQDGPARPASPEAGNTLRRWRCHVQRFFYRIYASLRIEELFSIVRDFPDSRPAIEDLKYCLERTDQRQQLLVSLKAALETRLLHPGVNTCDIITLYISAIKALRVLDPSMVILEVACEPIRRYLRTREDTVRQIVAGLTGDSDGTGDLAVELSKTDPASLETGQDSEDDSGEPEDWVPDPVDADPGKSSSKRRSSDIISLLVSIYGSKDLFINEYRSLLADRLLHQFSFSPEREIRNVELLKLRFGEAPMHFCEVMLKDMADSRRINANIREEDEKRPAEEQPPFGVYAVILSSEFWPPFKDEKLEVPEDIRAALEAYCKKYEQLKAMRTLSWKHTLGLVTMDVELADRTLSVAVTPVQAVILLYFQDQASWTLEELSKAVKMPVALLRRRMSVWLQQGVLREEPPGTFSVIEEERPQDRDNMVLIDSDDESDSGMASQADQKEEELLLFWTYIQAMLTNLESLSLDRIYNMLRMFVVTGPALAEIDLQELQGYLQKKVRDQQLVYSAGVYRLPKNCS

| Compound | APC Flag (2 pt) |
| --- | --- |
| O=S(=O)(Nc1ccc(F)c(Cl)c1)c1ccc(Oc2ccc(F)cc2)cc1 [Example 189, N-(3-chloro-4-fluorophenyl)-4-(4-fluoro-phenoxy)benzenesulfonamide] | − (2 pt) |

Same assay, conditions: 8 concentrations tested

| Compound | APC Flag 8 pt |
| --- | --- |
| N#Cc1ccc(N(S(=O)(=O)c2cc(Cl)c(Oc3ccc([N+](=O)[O-])cc3Cl)c(Cl)c2)S(=O)(=O)c2cc(Cl)c(Oc3ccc([N+](=O)[O-])cc3Cl)c(Cl)c2)cc1 [Example 136, 3,5-dichloro-4-(2-chloro-4-nitrophenoxy)-N-(4-cyanophenyl)-N-(1,3-dichloro-2-(2-chloro-4-nitrophenoxy)-5-sulfonylbenzene)-benzenesulfonamide] | + |
| O=[N+]([O-])c1ccc(Oc2c(Cl)cc(S(=O)(=O)Nc3ccc(Cl)cc3)cc2Cl)c(Cl)c1 [Example 176, 3,5-dichloro-4-(2-chloro-4-nitrophenoxy)-N-(4-chlorophenyl)benzenesulfonamide] | − |
| O=[N+]([O-])c1ccc(Oc2c(Cl)cc(S(=O)(=O)Nc3cc(OC(F)(F)F)ccc3Br)cc2Cl)c(Cl)c1 [Example 293, N-(2-bromo-5-(trifluoromethoxy)phenyl)-3,5-dichloro-4-(2-chloro-4-nitrophenoxy)benzenesulfonamide] | + |
| O=[N+]([O-])c1ccc(Oc2c(Cl)cc(S(=O)(=O)NCc3ccncc3)cc2Cl)c(Cl)c1 [Example 133, 3,5-dichloro-4-(2-chloro-4-nitrophenoxy)-N-(pyridin-4-ylmethyl)benzenesulfonamide] | − |
| O=[N+]([O-])c1ccc(Oc2c(Cl)cc(S(=O)(=O)Nc3cccc(F)c3F)cc2Cl)c(Cl)c1 [Example 239, 3,5-dichloro-4-(2-chloro-4-nitrophenoxy)-N-(2,3-difluorophenyl)benzenesulfonamide] | + |
| N=C(NS(=O)(=O)c1cc(Cl)c(Oc2ccc([N+](=O)[O-])cc2)c(Cl)c1)c1ccc(Cl)cc1 [Example 34, 4-chloro-N-{[3,5-dichloro4-(4-nitrophenoxy)phenyl]sulfonyl}benzenecarboximidamide] | − |
| Cc1ccc(NS(=O)(=O)c2cc(Cl)c(Oc3ccc([N+](=O)[O-])cc3Cl)c(Cl)c2)cc1F [Example 198, 3,5-dichloro-4-(2-chloro-4-nitrophenoxy)-N-(3-fluoro-4-methylphenyl)benzene-sulfonamide] | + |
| COc1ccc(NS(=O)(=O)c2cc(Cl)c(Oc3ccc([N+](=O)[O-])cc3Cl)c(Cl)c2)c(OC)c1OC [Example 157, 3,5-dichloro-4-(2-chloro-4-nitrophenoxy)-N-(2,3,4-trimethoxyphenyl)benzenesulfonamide] | + |
| O=[N+]([O-])c1ccc(F)c(NS(=O)(=O)c2ccc(Oc3ccc([N+](=O)[O-])cc3C(F)(F)F)c(Cl)c2)c1 [Example 260, 3-chloro-N-(2-fluoro-5-nitrophenyl)-4-[4-nitro-2-(trifluoromethyl)phenoxy]benzene-sulfonamide] | + |
| Cc1ccc(S(=O)(=O)Nc2ccc(Oc3c([N+](=O)[O-])cc(C(F)(F)F)cc3[N+](=O)[O-])c(Cl)c2)cc1 [Example 247, N-{3-chloro-4-[2,6-dinitro-4-(trifluoro-methyl)phenoxy]phenyl}-4-methylbenzene-sulfonamide] | + |
| Cc1c(Cl)cccc1NS(=O)(=O)c1ccc(Oc2cccc(Cl)c2C#N)cc1 [Example 181, 4-(3-chloro-2-cyanophenoxy)-N-(3-chloro-2-methylphenyl)benzenesulfonamide] | − |
| CC1CC(C)CN(S(=O)(=O)c2cc(Cl)c(Oc3ccc([N+](=O)[O-])cc3Cl)c(Cl)c2)C1 (stereo not shown) [Example 20, 1-{[3,5-dichloro-4-(2-chloro-4-nitrophenoxy)phenyl]sulfonyl}-3,5-dimethylpiperidine] | + |
| Cc1cccc(NS(=O)(=O)c2cc(Cl)c(Oc3ccc([N+](=O)[O-])cc3Cl)c(Cl)c2)c1 [Example 161, 3,5-dichloro-4-(2-chloro-4-nitrophenoxy)-N-(3-methylphenyl)benzenesulfonamide] | + |
| O=[N+]([O-])c1ccc(N(S(=O)(=O)c2cc(Cl)c(Oc3ccc([N+](=O)[O-])cc3Cl)c(Cl)c2)S(=O)(=O)c2cc(Cl)c(Oc3ccc([N+](=O)[O-])cc3Cl)c(Cl)c2)cc1 [Example 138, 3,5-dichloro-4-(2-chloro-4-nitrophenoxy)-N-(1,3-dichloro-2-(2-chloro-4-nitrophenoxy)-5-sulfonylbenzene)-N-(4-nitrophenyl) benzenesulfonamide] | + |
| O=C(Nc1cc(Cl)ccc1Cl)N1CCC(Oc2ncccn2)CC1 [Compound 310, N-(2,5-dichlorophenyl)-4-(pyrimidin-2-yloxy)piperidine-1-carboxamide] | − |
| O=[N+]([O-])c1cccc(Cl)c1Oc1ccc(S(=O)(=O)Nc2cccc(Br)c2)cc1 [Example 183, N-(3-bromophenyl)-4-(2-chloro-6-nitro-phenoxy)benzenesulfonamide] | − |
| CC1CCN(S(=O)(=O)c2cc(Cl)c(Oc3ccc([N+](=O)[O-])cc3Cl)c(Cl)c2)CC1 [Example 19, 1-{[3,5-dichloro-4-(2-chloro-4-nitrophenoxy)phenyl]sulfonyl}-4-methylpiperidine] | − |
| CC(=O)N(C(C)=O)c1ccc(Oc2c(Cl)cc(S(=O)(=O)Nc3cccc(Cl)c3)cc2Cl)c(Cl)c1 [Example 280, N-acetyl-N-[3-chloro-4-(2,6-dichloro-4-{[(3-chlorophenyl)amino]sulfonyl}phenoxy)phenyl]acetamide] | + |
